US7163939
Read-outs that look alike come from different tables or passages of the source.

Conditions: rcm bond

## O=C1Nc2cncc(n2)OCCC=CCOc2ccc(Cl)cc2N1
From C=CCCOc1cncc(NC(=O)Nc2cc(Cl)ccc2OCC=C)n1, 15-membered ring, Grubbs II (15 mol%), CH2Cl2, 2.4 mM, 50.0 °C, 16.0 h
  ring closure, isolated yield: 40%

## N#Cc1ncc2nc1OCCC=CCOc1c(F)cc(Cl)cc1NC(=O)N2
From C=CCCOc1nc(NC(=O)Nc2cc(Br)cc(F)c2OCC=C)cnc1C#N, 15-membered ring, Grubbs II (10 mol%), CH2Cl2, 1.47 mM, 25.0 °C, 6.0 h
  ring closure, isolated yield: 64%

## Cc1cc(Cl)c2c(c1)NC(=O)Nc1cnc(C#N)c(n1)OCCC=CCO2
From C=CCCOc1nc(NC(=O)Nc2cc(C)cc(Br)c2OCC=C)cnc1C#N, 15-membered ring, Grubbs II (10 mol%), CH2Cl2, 2.11 mM, 40.0 °C, 16.0 h
  ring closure, isolated yield: 72%

## CC1C=CCCOc2nc(cnc2C#N)NC(=O)Nc2cc(Cl)ccc2O1 (stereo not drawn)
From C=CCCOc1nc(NC(=O)Nc2cc(Cl)ccc2OC(C)C=C)cnc1C#N, 15-membered ring, Grubbs II (10 mol%), CH2Cl2, 1.97 mM, 25.0 °C, 36.0 h
  ring closure, isolated yield: 63%

## C[Si](C)(C)CCOCOc1cc2c(cc1Cl)NC(=O)Nc1cnc(C#N)c(n1)OCCC=CCO2
From C=CCCOc1nc(NC(=O)Nc2cc(Cl)c(OCOCC[Si](C)(C)C)cc2OCC=C)cnc1C#N, 15-membered ring, Grubbs II (10 mol%), DMSO workup, CH2Cl2, 1.5 mM, 25.0 °C, 16.0 h
  ring closure, isolated yield: 92%

## N#Cc1ncc2nc1OCC=CCOc1ccc(Cl)cc1NC(=O)N2
From C=CCOc1ccc(Cl)cc1NC(=O)Nc1cnc(C#N)c(OCC=C)n1, 14-membered ring, Grubbs II (15 mol%), CH2Cl2, 1.8 mM, 40.0 °C, 16.0 h
  ring closure, isolated yield: 54%

## N#Cc1ncc2nc1OCCC=CCOc1ncc(Cl)cc1NC(=O)N2
From C=CCCOc1nc(NC(=O)Nc2cc(Cl)cnc2OCC=C)cnc1C#N, 15-membered ring, Grubbs II (15 mol%), CH2Cl2, 2.75 mM, 40.0 °C, 16.0 h
  ring closure, isolated yield: 36%

## N#Cc1ncc2nc1OCCC=CCOc1cc(N)c(Cl)cc1NC(=O)N2
From C=CCCOc1nc(NC(=O)Nc2cc(Cl)c(N)cc2OCC=C)cnc1C#N, 15-membered ring, Grubbs II (10 mol%), DMSO workup, CH2Cl2, 1.96 mM, 25.0 °C, 16.0 h
  ring closure, isolated yield: 77%

## 2-oxo-18-[3-(tetrahydro-2H-pyran-2-yloxy)propyl]-2,3,11,14-tetrahydro-1H,10H-8,4-epiazeno-9,15,1,3,6-benzodioxatriazacycloheptadecine-7-carbonitrile
15-membered ring
  ring closure, isolated yield: 37%
